Experimental data from ChEMBL document CHEMBL1201861, “Genomics of Drug Sensitity in Cancer screening data, Wellcome Trust Sanger Institute”.
pIC50: −log10 of the molar value.

How the values were obtained:
Assay in all cases: cells
Settings in all cases: Homo sapiens
SF-126 = format: functional, cell-based;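 note: growth inhibition of human SF126 cells, read out with a cell viability assay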
Description: SANGER: Inhibition of human SF126 cell growth in a cell viability assay.

BB49-HNC = format: functional, cell-based;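 note: cell viability assay read-out, reported as inhibition of BB49-HNC cell growth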
Description: SANGER: Inhibition of human BB49-HNC cell growth in a cell viability assay.

SF-268 = format: functional, cell-based;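 note: growth inhibition of SF-268 cells determined with a cell viability assay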
Description: SANGER: Inhibition of human SF268 cell growth in a cell viability assay.

NCI-H1299 = format: functional, cell-based;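 note: growth inhibition of human NCI-H1299 cells, read out by a cell viability assay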
Description: SANGER: Inhibition of human NCI-H1299 cell growth in a cell viability assay.

MZ2-MEL = format: functional, cell-based;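 note: growth inhibition of MZ2-MEL cells read out with a cell viability assay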
Description: SANGER: Inhibition of human MZ2-MEL cell growth in a cell viability assay.

ONS-76 = format: functional, cell-based;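 note: growth inhibition of human ONS-76 cells, read out with a cell viability assay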
Description: SANGER: Inhibition of human ONS-76 cell growth in a cell viability assay.

KE-37 = format: functional, cell-based;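 note: growth inhibition of KE-37 cells, read out with a cell viability assay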
Description: SANGER: Inhibition of human KE-37 cell growth in a cell viability assay.

J-RT3-T3-5 = format: functional, cell-based;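 note: cell viability assay measuring growth inhibition of human J-RT3-T3-5 cells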
Description: SANGER: Inhibition of human J-RT3-T3-5 cell growth in a cell viability assay.

VA-ES-BJ = format: functional, cell-based;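 note: growth inhibition of the VA-ES-BJ cell line, read out by a cell viability assay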
Description: SANGER: Inhibition of human VA-ES-BJ cell growth in a cell viability assay.

MLMA = format: functional, cell-based;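 note: growth inhibition of MLMA cells (human), determined through a cell viability readout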
Description: SANGER: Inhibition of human MLMA cell growth in a cell viability assay.

EW-11 = format: functional, cell-based;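 note: growth inhibition of human EW-11 cells, measured with a cell viability assay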
Description: SANGER: Inhibition of human EW-11 cell growth in a cell viability assay.

NCI-H82 = format: functional, cell-based;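 note: growth inhibition of NCI-H82 cells, measured with a cell viability readout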
Description: SANGER: Inhibition of human NCI-H82 cell growth in a cell viability assay.

ETK-1 = format: functional, cell-based;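 note: growth inhibition of human ETK-1 cells, read out with a cell viability assay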
Description: SANGER: Inhibition of human ETK-1 cell growth in a cell viability assay.

MC116 = format: functional, cell-based;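 note: growth inhibition of MC116 cells, read out with a cell viability assay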
Description: SANGER: Inhibition of human MC116 cell growth in a cell viability assay.

LB373-MEL-D = format: functional, cell-based;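 note: growth inhibition of the cell line, read out in a cell viability assay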
Description: SANGER: Inhibition of human LB373-MEL-D cell growth in a cell viability assay.

CTB-1 = format: functional, cell-based
Description: SANGER: Inhibition of human CTB-1 cell growth in a cell viability assay.

NCI-H747 = format: functional, cell-based;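 note: growth inhibition of human NCI-H747 cells, read out by a cell viability assay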
Description: SANGER: Inhibition of human NCI-H747 cell growth in a cell viability assay.

HL-60 = format: functional, cell-based;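 note: growth inhibition of human HL-60 cells, read out with a cell viability assay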
Description: SANGER: Inhibition of human HL-60 cell growth in a cell viability assay.

GT3TKB = format: functional, cell-based;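 note: growth inhibition of the cell line, read out with a cell viability assay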
Description: SANGER: Inhibition of human GT3TKB cell growth in a cell viability assay.

NCI-H720 = format: functional, cell-based;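 note: growth inhibition of human NCI-H720 cells determined by a cell viability assay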
Description: SANGER: Inhibition of human NCI-H720 cell growth in a cell viability assay.

L-428 = format: functional, cell-based
Description: SANGER: Inhibition of human L-428 cell growth in a cell viability assay.

COLO-320-HSR = format: functional, cell-based;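 note: growth inhibition of COLO-320-HSR cells, determined with a cell viability assay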
Description: SANGER: Inhibition of human COLO-320-HSR cell growth in a cell viability assay.

EC-GI-10 = format: functional, cell-based
Description: SANGER: Inhibition of human EC-GI-10 cell growth in a cell viability assay.

LAMA-84 = format: functional, cell-based;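 note: growth inhibition of LAMA-84 cells, read out with a cell viability assay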
Description: SANGER: Inhibition of human LAMA-84 cell growth in a cell viability assay.

SW 962 = format: functional, cell-based;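 note: growth inhibition of human SW962 cells, read out by a cell viability assay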
Description: SANGER: Inhibition of human SW962 cell growth in a cell viability assay.

HC-1 = format: functional, cell-based;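 note: growth inhibition of HC-1 cells measured by a cell viability assay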
Description: SANGER: Inhibition of human HC-1 cell growth in a cell viability assay.

DOHH-2 = format: functional, cell-based;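 note: growth inhibition of human DOHH-2 cells, read out with a cell viability assay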
Description: SANGER: Inhibition of human DOHH-2 cell growth in a cell viability assay.

DSH1 = format: functional, cell-based;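 note: growth inhibition of human DSH1 cells, measured with a cell viability readout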
Description: SANGER: Inhibition of human DSH1 cell growth in a cell viability assay.

no-10 = format: functional, cell-based;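 note: growth inhibition of no-10 cells, read out with a cell viability assay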
Description: SANGER: Inhibition of human no-10 cell growth in a cell viability assay.

NCI-H526 = format: functional, cell-based;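 note: growth inhibition of the human NCI-H526 cell line, measured by a cell viability assay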
Description: SANGER: Inhibition of human NCI-H526 cell growth in a cell viability assay.

HT = format: functional, cell-based
Description: SANGER: Inhibition of human HT cell growth in a cell viability assay.

LXF-289 cell line = format: functional, cell-based
Description: SANGER: Inhibition of human LXF-289 cell growth in a cell viability assay.

HD-MY-Z = format: functional, cell-based;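 note: growth inhibition of HD-MY-Z cells, read out with a cell viability assay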
Description: SANGER: Inhibition of human HD-MY-Z cell growth in a cell viability assay.

HCE-T = format: functional, cell-based;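 note: cell viability assay read-out, reporting inhibition of HCE-T cell growth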
Description: SANGER: Inhibition of human HCE-T cell growth in a cell viability assay.

LU-134-A = format: functional, cell-based
Description: SANGER: Inhibition of human LU-134-A cell growth in a cell viability assay.

LS-1034 = format: functional, cell-based
Description: SANGER: Inhibition of human LS-1034 cell growth in a cell viability assay.

NMC-G1 = format: functional, cell-based;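 note: growth inhibition of the NMC-G1 cell line, measured with a cell viability read-out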
Description: SANGER: Inhibition of human NMC-G1 cell growth in a cell viability assay.

L-363 = format: functional, cell-based
Description: SANGER: Inhibition of human L-363 cell growth in a cell viability assay.

NKM-1 = format: functional, cell-based;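 note: growth inhibition of NKM-1 cells, read out with a cell viability assay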
Description: SANGER: Inhibition of human NKM-1 cell growth in a cell viability assay.

EW-16 = format: functional, cell-based;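 note: growth inhibition of human EW-16 cells, read out as cell viability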
Description: SANGER: Inhibition of human EW-16 cell growth in a cell viability assay.

DU-4475 = format: functional, cell-based
Description: SANGER: Inhibition of human DU-4475 cell growth in a cell viability assay.

TE-5 = format: functional, cell-based;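 note: inhibition of cell growth, read out by a cell viability assay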
Description: SANGER: Inhibition of human TE-5 cell growth in a cell viability assay.

NCI-H1355 = format: functional, cell-based;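 note: growth inhibition of human NCI-H1355 cells, read out by a cell viability assay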
Description: SANGER: Inhibition of human NCI-H1355 cell growth in a cell viability assay.

MV4-11 = format: functional, cell-based, MV-4-11;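 note: cell viability readout measuring growth inhibition of human MV-4-11 cells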
Description: SANGER: Inhibition of human MV-4-11 cell growth in a cell viability assay.

C2BBe1 = format: functional, cell-based;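 note: growth inhibition of C2BBe1 cells, read out through a viability assay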
Description: SANGER: Inhibition of human C2BBe1 cell growth in a cell viability assay.

MHH-NB-11 = format: functional, cell-based;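 note: growth inhibition of human MHH-NB-11 cells, read out by a cell viability assay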
Description: SANGER: Inhibition of human MHH-NB-11 cell growth in a cell viability assay.

ES7 = format: functional, cell-based;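 note: growth inhibition of cultured human ES7 cells, read out as cell viability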
Description: SANGER: Inhibition of human ES7 cell growth in a cell viability assay.

KS-1 = format: functional, cell-based;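 note: growth inhibition of KS-1 cells, read out with a cell viability assay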
Description: SANGER: Inhibition of human KS-1 cell growth in a cell viability assay.

BT-474 = format: functional, cell-based
Description: SANGER: Inhibition of human BT-474 cell growth in a cell viability assay.

ML-2 = format: functional, cell-based;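 note: growth inhibition of ML-2 cells, measured with a cell viability readout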
Description: SANGER: Inhibition of human ML-2 cell growth in a cell viability assay.

K562 = format: functional, cell-based
Description: SANGER: Inhibition of human K-562 cell growth in a cell viability assay.

SH-4 = format: functional, cell-based;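 note: growth inhibition of SH-4 cells, read out with a cell viability assay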
Description: SANGER: Inhibition of human SH-4 cell growth in a cell viability assay.

MOLT-4 = format: functional, cell-based;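 note: growth inhibition of MOLT-4 cells, determined with a cell viability readout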
Description: SANGER: Inhibition of human MOLT-4 cell growth in a cell viability assay.

IST-MES1 = format: functional, cell-based;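 note: growth inhibition of IST-MES1 cells, measured with a cell viability assay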
Description: SANGER: Inhibition of human IST-MES1 cell growth in a cell viability assay.

GR-ST = format: functional, cell-based
Description: SANGER: Inhibition of human GR-ST cell growth in a cell viability assay.

EM-2 = format: functional, cell-based;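 note: growth inhibition of EM-2 cells, read out with a cell viability assay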
Description: SANGER: Inhibition of human EM-2 cell growth in a cell viability assay.

COLO-829 = format: functional, cell-based
Description: SANGER: Inhibition of human COLO-829 cell growth in a cell viability assay.

LAN-6 = format: functional, cell-based;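 note: growth inhibition of LAN-6 cells, determined with a cell viability assay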
Description: SANGER: Inhibition of human LAN-6 cell growth in a cell viability assay.

OVCAR-4 = format: functional, cell-based;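 note: growth inhibition of human OVCAR-4 cells, measured with a cell viability assay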
Description: SANGER: Inhibition of human OVCAR-4 cell growth in a cell viability assay.

LS-411N = format: functional, cell-based
D-263MG = format: functional, cell-based
Description: SANGER: Inhibition of human D-263MG cell growth in a cell viability assay.

NOMO-1 = format: functional, cell-based;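 note: growth inhibition of human NOMO-1 cells measured by a cell viability assay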
Description: SANGER: Inhibition of human NOMO-1 cell growth in a cell viability assay.

MFH-ino = format: functional, cell-based;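 note: growth inhibition of human MFH-ino cells, read out by a cell viability assay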
Description: SANGER: Inhibition of human MFH-ino cell growth in a cell viability assay.

PSN1 = format: functional, cell-based;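 note: suppression of growth of human PSN1 cells, read out by a cell viability assay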
Description: SANGER: Inhibition of human PSN1 cell growth in a cell viability assay.

RS4-11 = format: functional, cell-based
Description: SANGER: Inhibition of human RS4-11 cell growth in a cell viability assay.

NCI-H2126 = format: functional, cell-based
Description: SANGER: Inhibition of human NCI-H2126 cell growth in a cell viability assay.

Measured: pIC50

Cc1ccc(NC(=O)c2cccc(C(C)(C)C#N)c2)cc1Nc1ccc2ncn(C)c(=O)c2c1
7.56: PSN1
5.85: MV4-11
> 7.81: SH-4
5.53: HD-MY-Z
6.18: K562
6.72: LAMA-84
5.70: DOHH-2
5.92: NOMO-1
6.13: NKM-1
7.59: COLO-829
6.78: ONS-76
6.17: LAN-6
6.30: NCI-H747
6.43: ML-2
6.41: KS-1
6.45: BB49-HNC
6.71: EM-2
6.81: HL-60
7.99: DU-4475
7.04: LS-411N
6.10: MZ2-MEL
< 5.40: SF-126 | SF-268 | NCI-H1299 | KE-37 | J-RT3-T3-5 | VA-ES-BJ | MLMA | EW-11 | NCI-H82 | ETK-1 | MC116 | CTB-1 | GT3TKB | NCI-H720 | L-428 | COLO-320-HSR | EC-GI-10 | SW 962 | HC-1 | DSH1 | no-10 | NCI-H526 | HT | LXF-289 cell line | HCE-T | LU-134-A | LS-1034 | NMC-G1 | L-363 | EW-16 | TE-5 | NCI-H1355 | C2BBe1 | MHH-NB-11 | ES7 | BT-474 | MOLT-4 | IST-MES1 | GR-ST | OVCAR-4 | D-263MG | MFH-ino | RS4-11 | NCI-H2126
5.78: LB373-MEL-D

C/C(O)=C(\C#N)C(=O)Nc1cc(Br)ccc1Br
< 4.80: SF-126 | BB49-HNC | SF-268 | NCI-H1299 | MZ2-MEL | ONS-76 | KE-37 | J-RT3-T3-5 | VA-ES-BJ | MLMA | EW-11 | NCI-H82 | ETK-1 | MC116 | LB373-MEL-D | CTB-1 | NCI-H747 | HL-60 | GT3TKB | NCI-H720 | L-428 | COLO-320-HSR | EC-GI-10 | LAMA-84 | SW 962 | HC-1 | DOHH-2 | DSH1 | no-10 | NCI-H526 | HT | LXF-289 cell line | HD-MY-Z | HCE-T | LU-134-A | LS-1034 | NMC-G1 | L-363 | NKM-1 | EW-16 | DU-4475 | TE-5 | NCI-H1355 | MV4-11 | C2BBe1 | MHH-NB-11 | ES7 | KS-1 | BT-474 | ML-2 | K562 | SH-4 | MOLT-4 | IST-MES1 | GR-ST | EM-2 | COLO-829 | LAN-6 | OVCAR-4 | LS-411N | D-263MG | NOMO-1 | MFH-ino | PSN1 | RS4-11 | NCI-H2126

CC(O)(CS(=O)(=O)c1ccc(F)cc1)C(=O)Nc1ccc(C#N)c(C(F)(F)F)c1 (centres undefined) [BICALUTAMIDE]
< 5.99: SF-126 | BB49-HNC | SF-268 | NCI-H1299 | MZ2-MEL | ONS-76 | KE-37 | J-RT3-T3-5 | VA-ES-BJ | MLMA | EW-11 | NCI-H82 | ETK-1 | MC116 | LB373-MEL-D | CTB-1 | NCI-H747 | HL-60 | GT3TKB | NCI-H720 | L-428 | COLO-320-HSR | EC-GI-10 | LAMA-84 | SW 962 | HC-1 | DOHH-2 | DSH1 | no-10 | NCI-H526 | HT | LXF-289 cell line | HD-MY-Z | HCE-T | LU-134-A | LS-1034 | NMC-G1 | L-363 | NKM-1 | EW-16 | DU-4475 | TE-5 | NCI-H1355 | MV4-11 | C2BBe1 | MHH-NB-11 | ES7 | KS-1 | BT-474 | ML-2 | K562 | SH-4 | MOLT-4 | IST-MES1 | GR-ST | EM-2 | COLO-829 | LAN-6 | OVCAR-4 | LS-411N | D-263MG | NOMO-1 | MFH-ino | PSN1 | RS4-11 | NCI-H2126

COc1cc(Nc2c(C#N)cnc3cc(OCCCN4CCN(C)CC4)c(OC)cc23)c(Cl)cc1Cl [BOSUTINIB]
6.04: MLMA
5.78: ONS-76
5.79: HD-MY-Z
6.54: LAMA-84
5.84: EW-16
5.82: J-RT3-T3-5
5.76: NKM-1
6.36: EM-2
6.31: KE-37 | RS4-11
5.88: MHH-NB-11
6.26: CTB-1
< 5.70: SF-126 | BB49-HNC | SF-268 | NCI-H1299 | MZ2-MEL | VA-ES-BJ | EW-11 | NCI-H82 | ETK-1 | MC116 | LB373-MEL-D | NCI-H747 | HL-60 | GT3TKB | NCI-H720 | L-428 | COLO-320-HSR | EC-GI-10 | SW 962 | HC-1 | DOHH-2 | DSH1 | no-10 | HT | LXF-289 cell line | HCE-T | LU-134-A | LS-1034 | NMC-G1 | L-363 | DU-4475 | TE-5 | NCI-H1355 | C2BBe1 | ES7 | KS-1 | BT-474 | ML-2 | K562 | SH-4 | MOLT-4 | IST-MES1 | GR-ST | COLO-829 | LAN-6 | OVCAR-4 | LS-411N | D-263MG | NOMO-1 | MFH-ino | PSN1 | NCI-H2126
5.77: MV4-11
5.70: NCI-H526
